Assay results published in US11945790B2 (ImmunoMolecular Therapeutics, Inc., priority 2020, dated 2024).
pEC50: −log10 of the molar value.

target: HLA-DQ2 (Homo sapiens, UniProt P01909+P01920); experiment: Inhibition of IL-2 secretion by TCR transductants stimulated by α-gliadin peptides presented by HLA-DQ2 expressing K562 cells (ELISA); assay type: cell-based; conditions: inhibition of IL-2 secretion at 200 uM; tested as trans racemate unless otherwise noted; lines naming several Examples = stereoisomer mixture of those Examples
Sequence (P01920 33-261 limits assumed, other chains not shown): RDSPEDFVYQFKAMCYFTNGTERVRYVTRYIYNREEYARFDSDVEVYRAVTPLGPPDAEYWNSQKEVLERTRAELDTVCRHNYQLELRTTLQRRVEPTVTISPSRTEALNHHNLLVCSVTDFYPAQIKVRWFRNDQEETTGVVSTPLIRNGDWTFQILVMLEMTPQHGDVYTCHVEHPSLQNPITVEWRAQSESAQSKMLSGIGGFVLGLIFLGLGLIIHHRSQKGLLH
Procedure: Three commercially available analogues of the DQ2 binding molecules of the invention were tested for their ability to inhibit stimulation of T cell receptor (TCR) transductants in the presence of HLA-DQ2 expressing cells presenting known α-gliadin epitopes.
Using a previously published in vitro assay (Ostrov D, et al. Methyldopa blocks MHC class II binding to disease specific antigens in autoimmune diabetes. J Clin Invest. 2018:128 (5)) the ability of these DQ2 binding analogues to inhibit interleukin-2 (IL-2) secretion by TCR transductants stimulated by α-gliadin peptides presented by HLA-DQ2 was determined. Individual TCR transductants (recognizing a I-gliadin or a II-gliadin) were cultured with a gliadin peptide plus the small molecule analogues in the presence of HLA-DQ2 expressing K562 cells serving as antigen presenting cells. TCR transductants cultured with no gliadin peptide served as the negative control, and incubation with an anti-CD3 antibody (eBioscience; clone 2C11) served as a positive control for the TCR transductant. Secreted IL-2 in the culture supernatant was measured using a highly sensitive enzyme-linked immunosorbent assay (ELISA). […] Assays for effects on cell viability and for specificity, assayed in the absence of gliadin peptide or in the presence of a stimulating anti-CD3 antibody, were performed. Unless otherwise noted, the stereochemistry shown below represents the relative configuration. Further, unless otherwise noted, compounds were tested as the trans racemate.

Structure (SMILES)	% Inh at 200 uM
Cc1cc(C(=O)N2CCN(C(=O)C3CC3c3ccc4c(c3)OCO4)CC2)c(C)o1 (centres unmarked) [Example 8]	A (A=≥75%)
O=C(COc1ccccc1)N1CCN(C(=O)[C@@H]2C[C@H]2c2ccccc2)CC1 (relative stereo) [Example 48, 2-Phenoxy-1-(4-(trans-2-phenylcyclopropanecarbonyl)piperazin-1-yl) ethanone]	B (B=50-74%)
O=C(COC1CCCC1)N1CCN(C(=O)[C@@H]2C[C@H]2c2ccccc2)CC1 [Example 64]	B (B=50-74%)
CSc1ccccc1C(=O)N1CCN(C(=O)C2CC2c2ccc3c(c2)OCO3)CC1 (centres unmarked) [Example 19]	C (C=25-49%)
CC1(c2ccccc2O)CC1C(=O)N1CCN(C(=O)CSC2CCCC2)CC1 (centres unmarked) [Example 67]	C (C=25-49%)
NC(=O)c1ccc(SCC(=O)N2CCN(C(=O)[C@@H]3C[C@H]3c3ccccc3)CC2)cc1 (relative stereo) [Example 85, 4-((2-Oxo-2-(4-(trans-2-phenylcyclopropanecarbonyl)piperazin-1-yl)ethyl)thio)benzamide]	C (C=25-49%)
O=C(CSC1CCCC1)N1CCN(C(=O)[C@H]2C[C@@H]2c2ccccc2Cl)CC1 [Example 36]	A (A=≥75%)
COC(=O)c1ccccc1OCC(=O)N1CCN(C(=O)[C@@H]2C[C@H]2c2ccccc2)CC1 [Example 100]	C (C=25-49%)
O=C(CSc1ccc(F)cc1)N1CCN(C(=O)C2CC2c2ccc3c(c2)OCO3)CC1 (centres unmarked) [Example 5]	B (B=50-74%)
NC(=O)c1ccccc1SCC(=O)N1CCN(C(=O)[C@@H]2C[C@H]2c2ccccc2)CC1 [Example 73]	C (C=25-49%)
O=C(COC1CCCCC1)N1CCN(C(=O)C2CC2c2ccccc2)CC1 (stereo not drawn) [Example 40, 2-(Cyclohexyloxy)-1-(4-((trans-2-phenylcyclopropanecarbonyl)-piperazin-1-yl)ethanone]	B (B=50-74%)
O=C(c1ccccc1F)N1CCN(C(=O)C2CC2c2ccc3c(c2)OCO3)CC1 (centres unmarked) [Example 22]	B (B=50-74%)
O=C(CSC1CCCC1)N1CCN(C(=O)[C@@H]2C[C@H]2c2ccccc2F)CC1 [Example 33]	B (B=50-74%)
O=C(CSC1CCCC1)N1CCN(C(=O)[C@H]2C[C@@H]2c2cccc(Cl)c2)CC1 [Example 32]	B (B=50-74%)
Cc1nnsc1C(=O)N1CCN(C(=O)C2CC2c2ccc3c(c2)OCO3)CC1 (centres unmarked) [Example 9]	C (C=25-49%)
COC(=O)c1cccc(OCC(=O)N2CCN(C(=O)[C@@H]3C[C@H]3c3ccccc3)CC2)c1 (relative stereo) [Example 109]	A (A=≥75%)
CCCCOCC(=O)N1CCN(C(=O)[C@@H]2C[C@H]2c2ccccc2)CC1 (relative stereo) [Example 46, 2-Butoxy-1-(4-(trans-2-phenylcyclopropanecarbonyl)piperazin-1-yl) ethanone]	B (B=50-74%)
O=C(Cc1c(F)cccc1Cl)N1CCN(C(=O)C2CC2c2ccc3c(c2)OCO3)CC1 (centres unmarked) [Example 23]	C (C=25-49%)
O=C(CN(C(=O)OCc1ccccc1)C1CCCC1)N1CCN(C(=O)[C@@H]2CC2c2ccccc2)CC1 (some centres unmarked) [Example 83]	A (A=≥75%)
O=C(O)c1cccc(OCC(=O)N2CCN(C(=O)[C@@H]3C[C@H]3c3ccccc3)CC2)c1 [Example 107]	D (D=0-24%)
COc1ccc([C@H]2C[C@@H]2C(=O)N2CCN(C(=O)CSC3CCCC3)CC2)cc1 [Example 28]	B (B=50-74%)

More lines, now with the values ahead:

% Inh at 200 uM	Structure (SMILES)
C (C=25-49%)	O=C(CSc1ccccc1)N1CCN(C(=O)[C@@H]2C[C@H]2c2ccccc2)CC1 (relative stereo) [Example 49, 1-(4-(Trans-2-phenylcyclopropane-1-carbonyl)piperazin-1-yl)-2-(phenylthio) ethan-1-one]
B (B=50-74%)	O=C(CSc1ccc(Cl)cc1)N1CCN(C(=O)[C@@H]2C[C@H]2c2ccccc2)CC1 (relative stereo) [Example 57, 2-((4-Chlorophenyl)thio)-1-(4-(trans-2-phenylcyclopropane-carbonyl)piperazin-1-yl) ethanone]
A (A=≥75%)	Cc1ccc(SCC(=O)N2CCN(C(=O)[C@@H]3C[C@H]3c3ccccc3)CC2)c(Cl)c1 (relative stereo) [Example 84, 2-((2-Chloro-4-methylphenyl)thio)-1-(4-(trans-2-phenylcyclo-propanecarbonyl)piperazin-1-yl) ethanone]
C (C=25-49%)	CC(C)SCC(=O)N1CCN(C(=O)[C@@H]2C[C@H]2c2ccccc2)CC1 [Example 45]
D (D=0-24%)	O=C(O)CCSCC(=O)N1CCN(C(=O)[C@@H]2C[C@H]2c2ccccc2)CC1 [Example 112]
C (C=25-49%)	COCC(=O)N1CCN(C(=O)[C@@H]2C[C@H]2c2ccccc2)CC1 (relative stereo) [Example 42, [2-Methoxy-1-(4-(trans-2-phenylcyclopropane-1-carbonyl)piperazin-1-yl)ethan-1-one]]
B (B=50-74%)	O=C(C[S+]([O-])C1CCCC1)N1CCN(C(=O)C2C[C@@H]2c2ccccc2)CC1 (some centres unmarked) [Example 80]
C (C=25-49%)	CSCC(=O)N1CCN(C(=O)[C@@H]2C[C@H]2c2ccccc2)CC1 (relative stereo) [Example 43, [2-(Methylthio)-1-(4-(trans-2-phenylcyclopropane-1-carbonyl)piperazin-1-yl)ethan-1-one]]
D (D=0-24%)	O=C(O)CCCSCC(=O)N1CCN(C(=O)[C@@H]2C[C@H]2c2ccccc2)CC1 [Example 114]
A (A=≥75%)	Cc1ccc(SCC(=O)N2CCN(C(=O)[C@@H]3C[C@H]3c3ccccc3)CC2)c(C)c1 [Example 70]

same assay, conditions: inhibition of IL-2 secretion, dose-response; tested as trans racemate unless otherwise noted; lines naming several Examples = stereoisomer mixture of those Examples

pEC50	Structure (SMILES)
4.00 to 4.30	COC(=O)c1cccc(OCC(=O)N2CCN(C(=O)[C@@H]3C[C@H]3c3ccccc3)CC2)c1 (relative stereo) [Example 109]
